Source: patent publication US6608086B2, “Dihydropyridines and new uses thereof” (Synaptic Pharmaceutical Corporation, priority 1993, dated 2003)
Structures can show the parent of a compound that is named as a salt. Where two headings read alike, the source gives them in different places.

Experiments:
α2A receptor = molecular target: T1, α2A receptor (Homo sapiens, UniProt P08913); assay: Competition binding, [3H]rauwolscine, human α2A receptor
T1 construct: host or cells: LM(tk-) cells, line L-α2A
T1 sequence (P08913 1-465): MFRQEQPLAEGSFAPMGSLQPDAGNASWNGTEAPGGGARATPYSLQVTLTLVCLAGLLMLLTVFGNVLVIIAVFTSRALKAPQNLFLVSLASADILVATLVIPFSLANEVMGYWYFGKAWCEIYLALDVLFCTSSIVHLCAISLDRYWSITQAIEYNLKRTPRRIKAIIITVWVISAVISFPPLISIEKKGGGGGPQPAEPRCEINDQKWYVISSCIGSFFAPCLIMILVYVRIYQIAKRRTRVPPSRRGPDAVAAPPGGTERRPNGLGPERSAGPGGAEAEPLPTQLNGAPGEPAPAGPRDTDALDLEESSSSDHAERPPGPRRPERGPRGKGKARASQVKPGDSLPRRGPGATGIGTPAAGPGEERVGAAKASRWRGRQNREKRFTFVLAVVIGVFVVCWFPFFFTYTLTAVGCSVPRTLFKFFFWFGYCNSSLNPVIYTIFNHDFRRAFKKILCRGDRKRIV
In short: (§1)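 Equilibrium displacement of [3H]rauwolscine (0.5 nM) measured on membranes from stably transfected LM(tk−) lines, one per α2 subtype, in glycylglycine buffer at pH 7.6. Nonspecific binding set by 10 μM phentolamine; separation by filtration.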

α2C receptor = molecular target: T2, α2C receptor (Homo sapiens, UniProt P18825); assay: Competition binding, [3H]rauwolscine, human α2C receptor
T2 construct: host or cells: LM(tk-) cells, line L-α2C
T2 sequence (P18825 1-462): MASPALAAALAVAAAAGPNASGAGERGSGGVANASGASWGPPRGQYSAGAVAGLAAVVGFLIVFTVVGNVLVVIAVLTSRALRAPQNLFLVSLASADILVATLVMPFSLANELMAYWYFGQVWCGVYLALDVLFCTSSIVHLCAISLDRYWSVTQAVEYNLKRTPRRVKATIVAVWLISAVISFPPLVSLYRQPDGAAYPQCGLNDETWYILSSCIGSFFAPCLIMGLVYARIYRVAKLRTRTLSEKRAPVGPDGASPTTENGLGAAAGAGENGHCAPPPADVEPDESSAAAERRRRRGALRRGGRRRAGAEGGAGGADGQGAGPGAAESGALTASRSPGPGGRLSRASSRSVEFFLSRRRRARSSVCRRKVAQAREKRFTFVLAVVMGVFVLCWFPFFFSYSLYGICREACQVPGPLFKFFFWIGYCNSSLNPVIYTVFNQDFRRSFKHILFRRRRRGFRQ
In short: as §1

[1] = molecular target: T3, α1A Human Adrenergic Receptor (Homo sapiens, UniProt P25100); assay: Radioligand binding, [3H]prazosin, cloned human α1A adrenergic receptor
T3 construct: The entire coding region of α1A (1719 bp); expressed in transfected cells
T3 sequence (P25100 1-572): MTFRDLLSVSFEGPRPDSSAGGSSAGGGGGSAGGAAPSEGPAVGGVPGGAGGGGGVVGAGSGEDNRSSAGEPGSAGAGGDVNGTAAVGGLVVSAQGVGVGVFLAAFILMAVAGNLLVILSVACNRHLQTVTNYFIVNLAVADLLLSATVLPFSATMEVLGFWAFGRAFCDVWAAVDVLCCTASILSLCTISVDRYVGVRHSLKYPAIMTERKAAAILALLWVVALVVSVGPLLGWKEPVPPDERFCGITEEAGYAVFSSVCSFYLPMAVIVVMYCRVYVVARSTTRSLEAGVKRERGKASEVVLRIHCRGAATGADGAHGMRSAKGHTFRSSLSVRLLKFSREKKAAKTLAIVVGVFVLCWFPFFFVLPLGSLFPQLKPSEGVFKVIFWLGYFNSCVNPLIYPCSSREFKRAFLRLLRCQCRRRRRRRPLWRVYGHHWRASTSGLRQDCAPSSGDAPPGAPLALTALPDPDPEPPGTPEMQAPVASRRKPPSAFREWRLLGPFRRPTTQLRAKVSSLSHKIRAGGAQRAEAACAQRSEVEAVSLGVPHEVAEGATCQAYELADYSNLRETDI
In short: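 Competition binding used membrane preparations of transfected LM(tk−) cells and the α1 antagonist [3H]prazosin at 0.5 nM, incubated 20 min at 37° C in Tris-HCl buffer, pH 7.5.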

[2] = [3H]rauwolscine, LM(tk-) cell line L-α2A, SEM and n in lines below, read-out: pKi alpha-2 2a (converted)
[3] = [3H]rauwolscine, LM(tk-) cell line L-α2C, SEM and n in lines below, read-out: pKi alpha-2 2c (converted)
[4] = [3H]prazosin, cloned human receptor in LM(tk-) cell membranes, SEM and n in lines below, read-out: pKi alpha-1 1a (converted)
[5] = [3H]rauwolscine, human receptor, LM(tk-) cell lysates, mean

For CCC1=C(C(N)=O)C(c2ccc([N+](=O)[O-])cc2)C(C(=O)NCCCN2CCC(c3ccccc3)CC2)=C(CC)N1 (stereo not drawn) [Example 121, 5-Carboxamido-2,6-diethyl-1,4-dihydro-4-(4-nitrophenyl)-3-{N-[3-(4-phenylpiperidin-1-yl)propyl]}carboxamidopyridine], the Ki (α2A receptor; [3H]rauwolscine, human α2A receptor, LM(tk−) cells, read-out: pKi alpha-2 2a (converted)) was 363 nM, the Ki (α2C receptor; [3H]rauwolscine, human α2C receptor, LM(tk−) cells, read-out: pKi alpha-2 2c (converted)) was 191 nM and the Ki ([1]; [3H]prazosin, cloned human α1A receptor, LM(tk−) cell membranes, read-out: pKi alpha-1 1a (converted)) was 240 nM.

Compound COC(=O)C1=C(C)NC(C)=C(C(=O)NCCCCN2CCC(c3ccccc3)CC2)C1c1ccc([N+](=O)[O-])cc1 (stereo not drawn) [Example 3, 1,4-Dihydro-3-methoxycarbonyl-2,6-dimethyl-4-(4-nitrophenyl)-5-{N-[4-(4-phenylpiperidin-1-yl)butyl]}carbozamidopyridine hydrochloride hydrate] has a Ki (α2A receptor; [2]) of 102 nM, a Ki (α2C receptor; [3]) of 51.3 nM and a Ki [1, 4] of 145 nM.

COC(=O)C1=C(C)NC(C)=C(C(=O)NCCCN2CCC(c3ccccc3)(c3ccccc3)CC2)C1c1cccc([N+](=O)[O-])c1 (stereo not drawn) [Example 249, 1,4-Dihydro-3-methoxycarbonyl-2,6-dimethyl-4-(3-nitrophenyl)-5-(N-(3-(4,4-diphenylpiperidin-1-yl)propyl)carboxamido)-pyridine] was tested, and the “PKi alpha-2 2a” value (α2A receptor) was 5.81, the “PKi alpha-2 2c” value (α2C receptor) was 6.25 and the “PKi alpha-1 1a” value [1] was 6.37.

In the case of COC(=O)C1=C(C)NC(C)=C(C(=O)NCCCN2CCC(c3ccccc3)CC2)C1c1ccc([N+](=O)[O-])cc1 (racemic) [(±)-45, (±)-1,4-Dihydro-3-methoxycarbonyl-2,6-dimethyl-4-(4-nitrophenyl)-5-{N-[3-(4-phenylpiperidin-1-yl)propyl]}carboxamidopyridine hydrochloride hemihydrate], the Ki (α2A receptor; [2]) is reported as 282 nM, the Ki (α2C receptor; [3]) is reported as 81.3 nM and the Ki [1, 4] is reported as 66.1 nM.

Compound CC(=O)C1=C(C)NC(COCCN)=C(C(=O)NCCCN2CCC(c3ccccc3)(c3ccccc3)CC2)C1c1ccc([N+](=O)[O-])cc1 (stereo not drawn) [Example 237, 5-Acetyl-2-((2-aminoethyl)oxy)methyl-1,4-dihydro-6-methyl-4-(4-nitro)phenyl 3-(N-(3-(4,4-diphenylpiperidin-1-yl)propyl)) carboxamidopyridine] has a Ki (α2A receptor; [3H]rauwolscine, human receptor, LM(tk-) cell lysates, mean, read-out: PKi alpha-2 2a (converted)) of 794 nM, a Ki (α2C receptor; [3H]rauwolscine, human receptor, LM(tk-) cell lysates, mean, read-out: PKi alpha-2 2c (converted)) of 324 nM and a Ki ([1]; PKi alpha-1 1a, [3H]prazosin, cloned human receptor, LM(tk-) cell membranes, mean) of 380 nM.

In the case of CC1=C(C(N)=O)C(c2ccc([N+](=O)[O-])cc2)C(C(=O)NCCCN2CCC(C(=O)OCCC#N)(c3ccccc3)CC2)=CN1C (stereo not drawn) [Example 209, 5-Carboxamido-3-{N-[3-(4-(2-cyanoethoxycarbonyl)-4-phenylpiperidin-1-yl)propyl]}carboxamido-1,4-dihydro-1,6-dimethyl-4-(4-nitrophenyl) pyridine], the “PKi alpha-2 2a” value (α2A receptor; [5]) is reported as 5.78, the “PKi alpha-2 2c” value (α2C receptor; [5]) is reported as 5.70 and the “PKi alpha-1 1a” value ([1]; [3H]prazosin, cloned human receptor, LM(tk-) cell membranes, mean) is reported as 5.17.

In the case of CCOC(=O)C1(c2ccccc2)CCN(CCCNC(=O)C2=C(COCCN)NC(C)=C(C(C)=O)C2c2ccc3c(c2)OCO3)CC1 (stereo not drawn) [Example 244, 5-Acetyl-2-((2-aminoethyl)oxy)methyl-3-(N-(3-(4-ethoxycarbonyl-4-phenylpiperidin-1-yl)propyl)) carboxamido-1,4-dihydro-6-methyl-4-(3,4-methylenedioxy) phenylpyridine], the Ki (α2A receptor; [3H]rauwolscine, human α2A receptor, LM(tk-) cells, read-out: PKi alpha-2 2a (converted)) is reported as 1020 nM, the Ki (α2C receptor; [3H]rauwolscine, human α2C receptor, LM(tk-) cells, read-out: PKi alpha-2 2c (converted)) is reported as 97.7 nM and the Ki ([1]; [3H]prazosin, cloned human α1A receptor, LM(tk-) cell membranes, read-out: PKi alpha-1 1a (converted)) is reported as 851 nM.

In the case of COC(=O)C1(c2ccccc2)CCN(CCCNC(=O)C2=C(COCCCN)NC(C)=C(C(C)=O)C2c2ccc([N+](=O)[O-])cc2)CC1 (stereo not drawn) [Example 241, 5-Acetyl-2-((3-aminopropyl)oxy)methyl-1,4-dihydro-3-(N-(3-(4-methoxycarbonyl-4-phenylpiperidin-1-yl)propyl))carboxamido-6-methyl-4-(4-nitro)phenylpyridine], the Ki (α2A receptor) is reported as 1580 nM, the Ki (α2C receptor; PKi alpha-2 2c) is reported as 398 nM and the Ki ([1]; PKi alpha-1 1a) is reported as 1450 nM.

Compound CCC1=C(C(=O)NC)C(c2ccc([N+](=O)[O-])cc2)C(C(=O)NCCCN2CCC(c3ccccc3)(c3ccccc3)CC2)=C(COCCN)N1 (stereo not drawn) [Example 225, 2-((2-Aminoethyl)oxy)methyl-6-ethyl-1,4-dihydro-5-N-methylcarboxamido-4-(4-nitro)phenyl-3-(3-(N-(4,4-diphenylpiperidin-1-yl)propyl))carboxamidopyridine] has a Ki (α2A receptor) of 2040 nM, a Ki (α2C receptor; PKi alpha-2 2c) of 417 nM and a Ki ([1]; PKi alpha-1 1a) of 1620 nM.
